2 molecules from patent US20100234417A1, “THYROTROPIN RELEASING HORMONE RECEPTOR-OREXIN RECEPTOR HETERO-DIMERS/-OLIGOMERS” (DIMERIX BIOSCIENCE PTY LTD., priority 2006, published 2010) can be followed below.

Assay type in all cases: cell-based
Experiment [1] has as its system thyrotropin releasing hormone receptor/orexin receptor hetero-dimer/-oligomer (OxR2 with HA-TRHR). Description: eBRET: OxR2/Rluc8 + barr2/Venus + HA-TRHR as IG3. Particulars: FIG. 18. Here is the method: (§1) Briefly, referring to FIGS. 1 to 3, the IGs are provided in the form of the two receptors (TRHR and OxR). One of the two is attached to an RC (IG1-RC1, IG3). A second IG (IG2-RC2) is derived from a molecule that interacts with the receptors upon ligand binding (e.g. beta-arrestin, or a mutant thereof).
(§2) Cells were seeded in 6-well plates at a density of approximately 630,000 cells/well (HEK293FT) or approximately 150,000 cells/well (COS-7) and maintained at 37° C., 5% CO2 in Complete Media (DMEM containing 0.3 mg/ml glutamine, 100 IU/ml penicillin and 100 μg/ml streptomycin (Gibco)) supplemented with 10% fetal calf serum (FCS; Gibco). […] Filtered light emissions were sequentially measured for 3-5 s in each of the ‘donor wavelength window’ (400-475 nm) and ‘acceptor wavelength window’ (>500 nm for EGFP or 520-540 nm for EYFP, Topaz (TYFP) or Venus). […] In this case, data are shown as ‘fluorescence/luminescence’ being the ratio of light emission through the ‘acceptor wavelength window’ over the 400-475 nm emission for a particular cell sample. Unless otherwise stated, BRET signals were measured in 96-well microplates.
(§3) Referring now to FIG. 18, eBRET signals were measured from cells transiently co-expressing OxR2/Rluc8 and barr2/Venus either with HA-TRHR or pcDNA3.
A general note: BRET reads energy transfer from a luciferase to a nearby fluorophore.

Experiment [2] deals with thyrotropin releasing hormone receptor/orexin receptor hetero-dimer/-oligomer (TRHR with OxR2). Description: eBRET/BRET detection of TRHR-OxR2 association: TRHR/Rluc + tagged beta-arrestin + OxR2 as IG3 in HEK293 cells. Here is the method:
as §1
Cells were seeded in 6-well plates at a density of approximately 630,000 cells/well (HEK293FT) or approximately 150,000 cells/well (COS-7) and maintained at 37° C., 5% CO2 in Complete Media (DMEM containing 0.3 mg/ml glutamine, 100 IU/ml penicillin and 100 μg/ml streptomycin (Gibco)) supplemented with 10% fetal calf serum (FCS; Gibco). Transient transfections were carried out 24 h after seeding using GeneJuice (Novagen) or Metafectene (Biontex) according to manufacturer instructions. 24 h post-transfection, cells were washed with PBS, detached using 0.05% trypsin/0.53 mM EDTA, resuspended in HEPES-buffered phenol red free Complete Media containing 5% FCS and added to a poly-L-lysine-coated white microplate (Nunc). 48 h post-transfection, eBRET assays were carried out following pre-incubation of cells with EnduRen™ (Promega) at a final concentration of 30-40 μM, at 37° C., 5% CO2 for 2 h. For original BRET studies, the HEPES-buffered phenol red free Complete Media was replaced with PBS and coelenterazine h (Molecular Probes) added to a final concentration of 5 μM immediately prior to commencing the assay. […] Filtered light emissions were sequentially measured for 3-5 s in each of the ‘donor wavelength window’ (400-475 nm) and ‘acceptor wavelength window’ (>500 nm for EGFP or 520-540 nm for EYFP, Topaz (TYFP) or Venus). The BRET signal observed between interacting proteins is normalized by subtracting the background BRET ratio. […] In the following examples, the first calculation will be used, unless the signal is described as the ‘ligand-induced BRET ratio’. […] In this case, data are shown as ‘fluorescence/luminescence’ being the ratio of light emission through the ‘acceptor wavelength window’ over the 400-475 nm emission for a particular cell sample. Unless otherwise stated, BRET signals were measured in 96-well microplates. […]
Cells not pretreated with antagonist were pretreated with PBS instead for the same amount of time. […]

Another experiment has as its target T1, OxR2 (Homo sapiens, UniProt O43614).
T1 construct: expressed in transfected cells; host or cells: HEK293 (HEK293FT)
T1 sequence (O43614 1-444): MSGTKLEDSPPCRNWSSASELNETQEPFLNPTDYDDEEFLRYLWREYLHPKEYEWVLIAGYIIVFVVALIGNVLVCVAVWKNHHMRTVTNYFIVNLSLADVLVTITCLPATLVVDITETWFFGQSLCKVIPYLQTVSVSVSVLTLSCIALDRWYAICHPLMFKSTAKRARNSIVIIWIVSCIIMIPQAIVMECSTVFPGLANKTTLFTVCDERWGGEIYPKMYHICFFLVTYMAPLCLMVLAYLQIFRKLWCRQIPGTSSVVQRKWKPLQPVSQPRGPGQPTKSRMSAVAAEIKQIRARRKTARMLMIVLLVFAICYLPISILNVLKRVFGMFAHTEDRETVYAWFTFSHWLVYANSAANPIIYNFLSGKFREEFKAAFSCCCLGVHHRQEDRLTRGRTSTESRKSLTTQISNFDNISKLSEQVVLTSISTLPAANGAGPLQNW
Description: BRET/eBRET beta-arrestin 2 recruitment to OxR2/Rluc or OxR2/Rluc8 without IG3 (pcDNA3). The settings on record: OxR2/Rluc8 + barr2/Venus + pcDNA3; FIG. 18. Here is the method:
as §1, §2, §3

Where [3] appears, read: HEK293, TRHR/Rluc + barr2/Venus + OxR2, ligand 10^−6M, FIG. 4.

Ends that are not written are not given here.

“OxA: orexin A; known orexin receptor modulator, used as IG3 ligand (modulator) (QPLPDCCRQKTCSCRLYELLHGAGNHAAGILTL; ends and bridges not checked; cysteine pairing not given here; UniProt O43612 34-66, looked up)”: the “time to eBRET signal peak” value in experiment [1] was not above 5 min. Moreover, the eBRET signal in experiment [2] (setting [3]) was 0.07-0.08; in experiment [2] (TRHR/Rluc + barr2/Venus + OxR2, 10^−6M OxA, FIG. 6) it was “eBRET signal was observed”. Also, in experiment [2] (setting [3]), the “time for eBRET signal to reach its level” value was “up to 30 minutes”. Moreover, the “time for eBRET signal to reach plateau” value was “more than 10 minutes” in experiment [2] (TRHR/Rluc + HA-OxR2 + EGFP/barr1 or EGFP/barr2, FIG. 7); “more than 10 minutes” in experiment [2] (TRHR/Rluc + OxR2 + EGFP/barr1, FIG. 8); not above 20 min in experiment [2] (TRHR/Rluc + OxR2 + EGFP/barr1R169E, FIG. 8); “more than 10 minutes” in experiment [2] (TRHR/Rluc + OxR2 + EGFP/barr1 or EGFP/barr2, FIG. 5). Moreover, the “dose-response Hill slope” value in experiment [2] (TRHR/Rluc + barr2/Venus + OxR2, FIG. 12) is “greater than 1”.

Take `NC(=O)[C@@H]1CCCN1C(=O)[C@H](Cc1cnc[nH]1)NC(=O)[C@@H]1CCC(=O)N1` [TRH, pGlu-His-Pro-NH2]: the “eBRET signal reached (ligand-induced BRET ratio)” value in experiment [1] (gradual increase over time) worked out at 0.05. In addition, the “ligand-induced eBRET signal” value on OxR2 is “No ligand-induced eBRET signal was observed”.
